Source: patent US9073864B2, “Aromatic ring compound” (TAKEDA PHARMACEUTICAL COMPANY LIMITED, priority 2012, dated 2015)

Assays:
[1] = test system: Wistar fatty rat; assay: Hypoglycemic action in Wistar fatty rat (single administration); type: in vivo; conditions: 10 mg/kg oral, 4 hr after administration, male Wistar fatty rats, change relative to non-administration group
Procedure: Hypoglycemic Action in Wistar Fatty Rat (Single Administration)
Wistar fatty rats (male, 25- to 26-week-old) were orally administered with a 0.5% methylcellulose suspension containing a test compound (10 mg/kg body weight) (test compound administration group, 4-6 per group) or 0.5% methylcellulose solution (test compound non-administration group, 4-6 per group), blood samples were collected from the rat tail vein 4 hr after the administration, and the hypoglycemic action was evaluated using the blood. The blood glucose was measured using Model 7180 HITACHI automatic analyzer (Hitachi, Ltd.).
In each animal of the test compound administration group and the test compound non-administration group, changes in the blood glucose level from that before administration was calculated, the difference between the “average change of test compound non-administration group” and the “change in each animal of test compound administration group” was calculated as the “change in blood glucose due to test compound”, and the average of each group was taken as the “blood glucose change value (mg/dL)”.

[2] = test system: streptozotocin (STZ)-induced type 1 diabetes model rat; assay: Suppressive action on hyperglycemia after eating in STZ-induced type 1 diabetes model rat bred with time-limited feeding; type: in vivo; conditions: 10 mg/kg p.o. q.d., detemir 10 U/kg s.c., n=8; for average plasma glucose concentration, 1 hr: 1 hr after administration and start of feeding; for average plasma glucose concentration, 2 hr: 2 hr after administration (immediately before end of feeding); for average plasma glucose concentration, value before administration: next day of 3 days repeated compound administration, immediately before feeding and dosing
Procedure: Suppressive Action on Hyperglycemia after Eating in Streptozotocin (STZ)-Induced Type 1 Diabetes Model Rat Bred with Time-Limited Feeding
Type 1 diabetes model STZ rat was generated by intravenously administering streptozotocin (STZ: Wako Pure Chemical Industries, Ltd., 65 mg/kg) after overnight fasting. From 1 week after the STZ treatment, time-limited feeding (feeding twice per day for 2 hours each time at 9:00-11:00 am and 16:00-18:00 pm) was started. On day 6 of breeding with time-limited feeding, blood samples were collected immediately before feeding in the morning and after 2 hours of feeding (immediately before end of feeding), and the rats were divided into two groups of detemir (long-acting insulin preparation) treatment group and detemir non-treatment group, with an increase in the plasma glucose concentration associated with the feed intake as an index. In the detemir treatment group, repeated subcutaneous administration of detemir (10 U/kg body weight, Novo Nordisk Pharma Ltd., once per day) was started after the end of feeding in the afternoon, and continued for 7 days until one day before evaluation of the influence of compound administration. Similarly, the detemir non-treatment group was subcutaneously administered repeatedly with saline for 7 days.
The day after repeated administration of detemir for 3 days, blood samples were collected in the same manner as above, and the animals in the detemir treatment group were divided into 3 groups based on an increase in the plasma glucose concentration associated with the feed intake. Each group was orally administered repeatedly with a 0.5% methylcellulose (MC) suspension containing the compound of Example 3 or 21 (10 mg/kg, q.d.) (8 per each group), or 0.5% methylcellulose solution (compound non-administration group, 8) for 4 days before feeding in the morning, starting from the next day of repeated administration of detemir for 4 days.
The next day of repeated administration of detemir for 7 days (the next day of repeated administration of compound for 3 days), blood samples were collected immediately before the start of feeding (and each compound administration) in the morning to obtain values before administration. Also, blood samples were collected after 1 and 2 hours of the administration (immediately before end of feeding), and an influence of compound administration on the profile of plasma glucose concentration after feed intake was evaluated.
Throughout the test, blood samples were collected from the tail vein, and the plasma glucose concentration was measured using Model 7180 HITACHI automatic analyzer.

[3] = target: T1, human type glucagon receptor (Homo sapiens, UniProt P47871); assay: Measurement of glucagon binding inhibitory activity ([125I]-glucagon, receptor membrane protein); conditions: test compound 10 μM; 0.4% DMSO alone = 0%, unlabeled glucagon 1 μM = 100%; read-out: inhibitory rate (%) at 10 μM
T1 construct: an about 1.4 kb DNA fragment containing glucagon receptor gene was recovered from the gel; expressed in transfected cells; host or cells: FreeStyle CHO cells (transient expression); membrane fraction prepared by homogenisation and ultracentrifugation
T1 sequence (P47871 26-477): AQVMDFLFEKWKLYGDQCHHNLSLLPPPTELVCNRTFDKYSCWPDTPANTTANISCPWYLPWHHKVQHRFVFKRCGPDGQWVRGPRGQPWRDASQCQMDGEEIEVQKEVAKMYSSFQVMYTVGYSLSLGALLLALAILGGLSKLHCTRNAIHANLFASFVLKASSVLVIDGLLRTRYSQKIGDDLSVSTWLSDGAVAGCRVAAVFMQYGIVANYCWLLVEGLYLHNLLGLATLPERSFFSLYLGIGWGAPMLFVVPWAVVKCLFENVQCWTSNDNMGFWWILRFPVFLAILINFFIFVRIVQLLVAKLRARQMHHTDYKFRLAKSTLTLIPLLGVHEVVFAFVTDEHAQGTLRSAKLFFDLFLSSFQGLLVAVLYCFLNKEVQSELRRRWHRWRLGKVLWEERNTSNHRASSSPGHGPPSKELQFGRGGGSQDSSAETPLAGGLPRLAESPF
Procedure: The glucagon binding inhibitory action of the compound of the present invention was evaluated by the following method.
(1) Cloning of Human Glucagon Receptor Gene
Human glucagon receptor gene was cloned by PCR reaction using human pancreas Marathon-ready cDNA (Clontech Laboratories, Inc.) as a template and the following primer set.
The PCR reaction was performed using Advantage 2 polymerase (Clontech Laboratories, Inc.) and according to the attached protocol. The obtained PCR product was subjected to agarose gel (1%) electrophoresis, an about 1.4 kb DNA fragment containing glucagon receptor gene was recovered from the gel, and digested with restriction enzymes EcoRI and NotI. The restriction enzyme-treated DNA was subjected to agarose gel (1%) electrophoresis, an about 1.4 kb DNA fragment was recovered and ligated with plasmid pMSRaneo digested with restriction enzymes EcoRI and NotI to give human type glucagon receptor expression plasmid DNA “pMSRaneo/hGCGR”. The base sequence of the inserted fragment was confirmed to be identical with the object sequence.
(2) Preparation of Glucagon Receptor Membrane Protein
Human type glucagon receptor was expressed using FreeStyle CHO Expression System (Invitrogen™). According to the manual attached to the FreeStyle CHO Expression System, and using the human type glucagon receptor expression plasmid DNA “pMSRaneo/hGCGR” produced in the above-mentioned (1), transient expression was performed by FreeStyle CHO cells. The above-mentioned DNA was transfected, and shaking culture was performed at 37° C., 8% CO2, 125 rpm for 2 days. The culture medium was centrifuged at 2,000 rpm for 10 min and the cells were recovered. The recovered cells were washed with PBS, suspended in homogenate buffer [10 mM NaHCO3 (pH 7.4), 1 mM EDTA, complete EDTA-free (Roche, Ltd., 1 tablet/50 ml)], and the cells were disrupted by a Polytron cell disruption apparatus (Kinematica AG). The disruption solution was centrifuged at 2,000 rpm for 10 min, and the supernatant was recovered. The supernatant was centrifuged at 35,000 rpm for 60 min, and the precipitate was suspended in a buffer [20 mM Tris-HCl (pH 7.4), 5 mM EDTA, complete EDTA-free (Roche, Ltd., 1 tablet/50 ml)] to give a glucagon receptor membrane protein.
(3) Measurement of Glucagon Binding Inhibitory Activity
The reaction was started by adding 50 μl of a glucagon receptor membrane protein solution diluted with a reaction buffer [50 mM HEPES (pH 7.4), 5 mM EGTA, 5 mM magnesium chloride, 0.1% BSA, 0.005% Tween20] to 100 μg/ml, 25 μl of a test compound solution containing 0.4% DMSO, which solution was prepared with the reaction buffer to a compound concentration of 40 μM, and 25 μl of radiolabeled glucagon ([^125I]-Receptor Grade Glucagon; Perkin Elmer Inc.) diluted with the reaction buffer to 200 pM to each well of a 96 well plate (Corning Incorporated). The plate was stood at room temperature for 90 min, then the reaction solution was transferred from the reaction plate onto a 96 well unifilter GF/C plate (Perkin Elmer Inc.) by a cell harvester (Perkin Elmer Inc.), and suctioned to collect a membrane fraction on the filter. The filter was immersed in a 0.3% polyethyleneimine solution in advance to prevent non-specific adsorption of the labeled ligand. The filter was washed 4 times with the reaction buffer, and dried at 42° C. for 2 hr. To each well was added 25 μl of scintillator (MicroScint0; Perkin Elmer Inc.), and the amount of fluorescence was measured by a microplate scintillation counter (TopCount NXT™; Perkin Elmer Inc.).
The inhibitory rate (%) of the well added with the test compound (10 μM; containing 0.4% DMSO solution) was calculated wherein the reaction rate of the well added with 0.4% DMSO alone was 0% inhibitory rate and that of the well added with unlabeled glucagon (final concentration 1 μM) was 100% inhibitory rate.

Row | Structure (SMILES) | blood glucose change value [1] [mg/dL] | average plasma glucose concentration, 1 hr [2] [mg/dL] | average plasma glucose concentration, 2 hr [2] [mg/dL] | average plasma glucose concentration, value before administration [2] [mg/dL] | inhibition at 10 µM [3] [%]
1 | Cc1cc(-n2cc3c(n2)CCCC3)ccc1C(CCC(F)(F)F)Nc1ccc(C(=O)N2CCC[C@@H](C(=O)O)C2)cc1 (stereo partly drawn) [Example 21, (3R)-1-(4-((4,4,4-trifluoro-1-(2-methyl-4-(4,5,6,7-tetrahydro-2H-indazol-2-yl)phenyl)butyl)amino)benzoyl)piperidine-3-carboxylic acid] | -136.0 | 471.1 | 552.0 | 435.6 | 90
2 | Cc1cc(-c2ncc(C(F)(F)F)cn2)ccc1C(CCC(F)(F)F)Nc1ccc(C(=O)N2CCC[C@@H](C(=O)O)C2)cc1 (stereo partly drawn) [Example 3, (3R)-1-(4-((4,4,4-trifluoro-1-(2-methyl-4-(5-(trifluoromethyl)pyrimidin-2-yl)phenyl)butyl)amino)benzoyl)piperidine-3-carboxylic acid] | -142.5 | 463.6 | 555.2 | 397.0 | 91
